In brackets after ≈: the same amount, converted by molar mass. Activity calls are given as the source filed them. The rule behind the calls is not given here.

Test [1] deals with KB. Kind of test: Cytotoxicity against human KB cells. It is filed as functional. Particulars: read-out: ED50 (the source's name).
Test [2] deals with P388. As to the kind of experiment: In vivo cytotoxicity against mouse P388 cells at upto 35 mg/kg. It is filed as functional, organism-based. The arrangement: dose 35 mg/kg.

In the case of `CC(C)=CCC1=C(O)C(=O)c2ccccc2C1=O` [LAPACHOL], the EC50 in test [1] turned out to be 4.4 mg/L (≈ 18.2 µM). Turning to `CC(O)c1cc2c(o1)C(=O)c1c(O)cccc1C2=O` (stereo not given), the EC50 in test [1] is 1 mg/L (≈ 3.87 µM). With `CC(=O)c1cc2c(o1)C(=O)c1ccccc1C2=O` [NAPABUCASIN], the outcome in test [2] was inactive. In test [1], the EC50 was determined as 1 mg/L (≈ 4.16 µM). Take `CC(O)c1cc2c(o1)C(=O)c1ccccc1C2=O` (stereo not given): the EC50 in test [1] was found to be 2 mg/L (≈ 8.26 µM).

Source of the values: ChEMBL document CHEMBL1151401, “Plant anticancer agents. XII. Isolation and structure elucidation of new cytotoxic quinones from Tabebuia cassinoides” (1982).
